# Assay results taken from ChEMBL document CHEMBL5724709, “EUbOPEN Chemogenomics Library - IncuCyte” (2024).
# Square brackets hold non-standard residues; d marks the D form. Peptide text beside a SMILES is read from it. Nle = CCCC[C@H](N)C(=O)O
# Key:
# Type in all cases: toxicity, cell-based
# [1] = tested on: U2OS; assay: Incucyte cell viability with U2OS; details: human, 24 h, 10 µM, compound concentration 10 uM
# [2] = tested on: Fibroblast; assay: Incucyte cell viability with human fibroblast; details: 24 h, 10 µM, compound concentration 10 uM
# [3] = tested on: HEK-293T; assay: Incucyte cell viability with HEK293T; details: human, 24 h, 10 µM, compound concentration 10 uM
# Note: unitless GR value; below 1 slowed growth and below 0 cell loss.
SMILES,Growth Rate ([1]; replicate number 1),Growth Rate ([1]; replicate number 2),Growth Rate ([2]; replicate number 1),Growth Rate ([2]; replicate number 2),Growth Rate ([3]; replicate number 1),Growth Rate ([3]; replicate number 2)
O=C(C1CC1)N1CC[C@@H](Cc2n[nH]c(=O)n2-c2ccc(-c3ccc4occc4c3)cc2)C1,0.54,0.69,0.43,0,0.73,1
CN1CCN(c2ccc3nc(-c4c(N)c5c(F)cccc5[nH]c4=O)[nH]c3c2)CC1 [DOVITINIB],-0.35,-0.04,1,,-0.39,-0.2
CCS(=O)(=O)N1CC(CC#N)(n2cc(-c3ncnc4[nH]ccc34)cn2)C1 [BARICITINIB],1,0.77,0.11,0.42,0.96,1
CCn1c(=O)c(C)cn(Cc2nnc(-c3ccc(F)c(OC)c3F)s2)c1=O,0.26,1,0.35,1,0.83,0.9
COC(=O)C[C@@H]1N=C(c2ccc(Cl)cc2)c2c(sc(C)c2C)-n2c(C)nnc21,1,,1,0.73,0.62,0.77
O=S(=O)(O)c1ccc2cc(/N=N/c3cc(S(=O)(=O)O)c4cccnc4c3O)ccc2c1,-0.34,1,0.17,-0.42,1,
CCOC(=O)NCCCC(=O)NCCc1ccccc1,0.48,0.84,1,,0.61,0.8
CC(C)C(=O)SCCCCCCC(=O)Nc1nc(-c2ccccc2)cs1,-0.42,0.02,1,-0.31,0.55,
COc1cc(Oc2ccnc3cc(OC)c(OC)cc23)ccc1NC(=O)NC(C)c1nccs1 (stereo not given),0.56,0.82,0.18,-0.01,1,
CCC[C@H]1CNCc2c1[nH]c(=O)c(C#N)c2N1CCC2(CC1)CC2.Cl,0.97,1,-0.11,0.09,0.75,0.9
CCN(c1cc(C#CCN2CCOCC2)cc(C(=O)NCc2c(C)cc(C)[nH]c2=O)c1C)[C@H]1CC[C@H](N(C)CCOC)CC1,1,0.81,1,,0.57,0.74
CCC(=O)N1CCOc2c(cc(-c3cc(OC)cc(OC)c3)cc2C(=O)N[C@H]2CCCN(C)C2)C1,0.42,1,0.84,0.98,0.39,0.7
Cc1cc(C)cc(Oc2ccc(CNC(=O)[C@H](C)N)cc2C)c1.Cl,0.69,1,1,,0.84,0.89
CSCC[C@H](NC(=O)[C@H](CC(=O)O)NC(C)=O)C(=O)N[C@@H](CCC(N)=O)C(=O)N[C@H](C=O)CC(=O)O.O=C(O)C(F)(F)F (Ac-DMQD-aldehyde),1,,0.25,1,1,0.97
O=C(NO)c1ccc(CN(c2cnccn2)c2cnccn2)cc1 [KA-2507],-0.27,0.83,1,0.97,1,
O=C(Nc1c[nH]nc1C(=O)NC1CCNCC1)c1cc(F)cc(F)c1,-0.13,0.19,-0.45,-0.55,0.15,0.14
COc1ccc(N(C(=O)Oc2c(C)cccc2C)c2ccnc(Nc3ccc(N4CCN(C)CC4)cc3)n2)c(OC)c1,0.04,0.72,0.52,1,0.49,0.97
COc1cc2c(NC3CCN(C)CC3)cc(-c3ccc(C)o3)nc2cc1OCCCN1CCCC1,-0.74,-0.55,0.13,-0.42,-0.35,-0.25
O=C(NO)c1cnc(NC2(c3ccccc3)CC2)nc1,-0.38,-0.13,-0.29,0.31,0.73,0.94

SMILES,Growth Rate ([1]; replicate number 1),Growth Rate ([1]; replicate number 2),Growth Rate ([2]; replicate number 1),Growth Rate ([2]; replicate number 2),Growth Rate ([3]; replicate number 1),Growth Rate ([3]; replicate number 2)
CC(C)(C)c1ccc(CN(C(=O)CN(Cc2c(F)c(F)c(F)c(F)c2F)S(=O)(=O)c2ccc(F)cc2)c2ccc(C(=O)NO)cc2)cc1,0.17,1,0.66,-0.2,0.62,0.53
C[C@]12O[C@H](C[C@]1(O)CO)n1c3ccccc3c3c4c(c5c6ccccc6n2c5c31)CNC4=O [LESTAURTINIB],0.59,0.46,1,,0.16,0.41
CN(C)Cc1ccc(S(=O)(=O)n2ccc(/C=C/C(=O)NO)c2)cc1.Cl,0.51,-0.17,0.79,-0.05,0.53,0.75
Cc1ncsc1-c1ccc(CNC(=O)[C@@H]2C[C@@H](O)CN2C(=O)[C@@H](NC(=O)COCC(C)(COCCOCCOCCNC(=O)C[C@@H]2N=C(c3ccc(Cl)cc3)c3c(sc(C)c3C)-n3c(C)nnc32)COCCOCCOCCNC(=O)C[C@@H]2N=C(c3ccc(Cl)cc3)c3c(sc(C)c3C)-n3c(C)nnc32)C(C)(C)C)cc1,0.43,0.95,1,,1,
CCCC[C@@H](C=O)NC(=O)[C@H](CC(C)C)NC(=O)[C@H](CC(C)C)NC(C)=O (Ac-Leu-Leu-[Nle]-aldehyde),-0.08,0.62,0.53,1,-0.02,0.18
O=C(NO)C(c1ccc(-c2ncc(C(F)(F)F)cn2)cc1)c1ccccc1F (stereo not given),0.6,0.81,0.37,-0.57,-0.14,0.69
CNC(=O)c1cc(Nc2ccnc(Nc3ccc(CCNC(=O)OC(C)(C)C)cc3)n2)[nH]n1,0.07,0.79,1,,0.07,0.24
CCC(NC(=O)C(CC(C)C)NC(=O)OCc1ccccc1)C(=O)C(=O)NCCCN1CCOCC1.O=C(O)C(F)(F)F (stereo not given),1,,1,,0.73,0.97
CC(=O)N[C@@H](CC(=O)O)C(=O)N[C@@H](CCC(=O)O)C(=O)N[C@H](C(=O)N[C@H](C=O)CC(=O)O)C(C)C.O=C(O)C(F)(F)F,1,,0.55,0.22,0.74,1
CCN(CC)S(=O)(=O)c1cc(Nc2nccc(-c3ccnc(-c4ccc(NC(=O)NC)cc4)c3)n2)ccc1Cl,-0.05,0.12,0.14,-0.71,-0.42,-0.23
CC(=O)N[C@@H](CC(C)C)C(=O)N[C@@H](CCC(=O)O)C(=O)N[C@H](C(=O)N[C@H](C=O)CC(=O)O)C(C)C (Ac-LEVD-aldehyde),0.75,1,0.82,0.19,0.89,0.82
Cc1cc2cc(NS(=O)(=O)c3ccc(C#N)cc3)ccc2n(C)c1=O,1,,0.71,0.65,0.88,
CC(=O)N1CCC(Nc2cc(C(=O)NC[C@H](O)CN3CCc4ccccc4C3)ncn2)CC1 [PEMRAMETOSTAT],0.26,1,1,,0.9,1
Nc1ncnc2c1ncn2[C@@H]1O[C@H](C[C@@H](N)CC[C@H](N)C(=O)O)[C@@H](O)[C@H]1O [SINEFUNGIN],0.54,1,0.66,-0.28,0.85,0.88
O=C(NCCc1cc(C(=O)NO)no1)c1ccc(Cl)c(Cl)c1,0.33,1,1,0.22,0.99,1
O=C1/C(=N/Nc2ccc(S(=O)(=O)O)cc2)C(c2ccc([N+](=O)[O-])cc2)=NN1c1ccccc1,0.88,1,1,,0.59,1
CC(=O)N[C@@H](Cc1ccc(O)cc1)C(=O)N[C@H](C(=O)N[C@@H](C)C(=O)N[C@@H](CC(=O)O)C(=O)COC(=O)c1c(C)cccc1C)C(C)C,1,,0.47,0.72,0.9,0.84
CC(=O)N[C@@H](CC(C)C)C(=O)N[C@@H](CCC(=O)O)C(=O)N[C@@H](Cc1cnc[nH]1)C(=O)N[C@H](C=O)CC(=O)O.O=C(O)C(F)(F)F (Ac-LEHD-aldehyde),1,0.89,1,0.49,0.81,0.98
